Measured values reported in patent EP4610269A1, “UROKINASE PLASMINOGEN ACTIVATOR SURFACE RECEPTOR (UPAR) LIGANDS FOR DIAGNOSTIC OR THERAPEUTIC USE” (3B Pharmaceuticals GmbH, priority 2024, dated 2025).
Where two headings read alike, the source gives them in different places. *1 amine or outer side, *2 acyl side, *3 side chain or, on linkers, in order; H or OH if unused. Where a SMILES comes first, the peptide text is derived from it. Bridges are numbered along the chain shown (N, C = ends). [ ]: non-standard residue; d: D form. The star is where a group is joined. X3 = NC(=O)[C@H](CCCCNC(=O)CN1CCN(CC(=O)O)CCN(CC(=O)O)CCN(CC(=O)O)CC1)NC(=O)CCC(=O)NCCCOCCOCCOCCCN*; X6 = O=C(O)CN1CCN(CC(=O)O)CCN(CC(=O)NCCCOCCOCCOCCCN*)CCN(CC(=O)O)CC1; DOTA = O=C(O)CN1CCN(CC(=O)O)CCN(CC(=O)*)CCN(CC(=O)O)CC1; Phe(2,4-Cl2) = N[C@@H](Cc1ccc(Cl)cc1Cl)C(=O)O; Pro(cis-4-F) = O=C(O)[C@@H]1C[C@H](F)CN1; Dopa = N[C@@H](Cc1ccc(O)c(O)c1)C(=O)O; Ser(ΨH,HPro) = O=C(O)[C@@H]1COCN1; Hyp = O=C(O)[C@@H]1C[C@@H](O)CN1; NMeE = CN[C@@H](CCC(=O)O)C(=O)O; Pentanoyl(4-Me) = CC(C)CCC(=O)*; Cit = NC(=O)NCCC[C@H](N)C(=O)O; Gly(cPr) = N[C@H](C(=O)O)C1CC1; Suc = O=C(CCC(=O)[*:2])[*:1]; Nle = CCCC[C@H](N)C(=O)O; Aze = O=C(O)[C@@H]1CCN1; Nva = CCC[C@H](N)C(=O)O; Hexanoyl = CCCCCC(=O)*; Pentanoyl = CCCCC(=O)*; Aib = CC(C)(N)C(=O)O

Legend:
[1] = molecular target: T1, uPAR-expressing HEC-265 human endometrial adenocarcinoma cells (Homo sapiens, UniProt Q03405); test: Competitive FACS binding assay; conditions: pIC50 category of FACS binding
T1 construct: Cell surface uPAR-expressing HEC-265 human endometrial adenocarcinoma cells; host or cells: HEC-265
Outline: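 Competitive displacement of a 10 nM biotinylated peptide from HEC-265 cells (1 h, 4 °C, PBS/1% BSA), detected via APC-streptavidin by flow cytometry. pIC50 from four-parameter logistic fit of median fluorescence versus concentration.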

[2] = molecular target: T2, human uPAR (uPAR-Fc) (Homo sapiens, UniProt Q03405); test: Surface plasmon resonance (SPR) assay, single cycle kinetics; type: binding; conditions: pKD category for uPAR SPR activity assay, uPAR-Fc on Protein A-Chip, 25°C, read-out: pKD CAT (converted)
T2 construct: comprising amino acids Leu23-Arg303 according to UniProt entry Q03405.1; purchased R&D Systems 10378-UK-100
Outline: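 uPAR-Fc (Leu23-Arg303 extracellular domains, human IgG1 Fc) captured on Protein A chip to ~2000 RU; single-cycle kinetics at 25°C in HEPES running buffer pH 7.4 with 0.1% DMSO. KD from double-referenced sensorgrams fitted to 1:1 Langmuir model, reported as pKD.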

T2 sequence (Q03405 23-303): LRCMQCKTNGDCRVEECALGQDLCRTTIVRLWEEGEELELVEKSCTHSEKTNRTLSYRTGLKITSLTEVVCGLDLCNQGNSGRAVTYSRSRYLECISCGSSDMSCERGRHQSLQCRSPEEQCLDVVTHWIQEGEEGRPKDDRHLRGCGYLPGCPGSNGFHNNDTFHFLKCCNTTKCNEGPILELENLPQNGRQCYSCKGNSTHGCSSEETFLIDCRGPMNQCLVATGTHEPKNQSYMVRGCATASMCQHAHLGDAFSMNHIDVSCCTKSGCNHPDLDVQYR
T1 sequence (Q03405 23-335): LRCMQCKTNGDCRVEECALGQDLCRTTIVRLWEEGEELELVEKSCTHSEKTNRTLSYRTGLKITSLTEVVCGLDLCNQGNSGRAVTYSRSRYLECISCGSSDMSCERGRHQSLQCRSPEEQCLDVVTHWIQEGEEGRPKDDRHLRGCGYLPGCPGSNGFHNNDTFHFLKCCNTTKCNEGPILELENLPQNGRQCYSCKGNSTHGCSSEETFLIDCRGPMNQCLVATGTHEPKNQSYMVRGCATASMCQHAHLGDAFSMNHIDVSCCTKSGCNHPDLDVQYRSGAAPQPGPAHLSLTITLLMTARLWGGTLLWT

## CCCCC(=O)N[C@H]1CSSC[C@@H](C(N)=O)NC(=O)[C@H](CCC)NC(=O)[C@H]([C@@H](C)CC)NC(=O)[C@@H]2C[C@@H](O)CN2C(=O)[C@@H]2CCCN2C(=O)[C@H](Cc2ccc(Cl)cc2Cl)NC(=O)[C@H](Cc2ccc(O)cc2)NC(=O)[C@H](CCCCNC(=O)CN2CCN(CC(=O)O)CCN(CC(=O)O)CCN(CC(=O)O)CC2)NC(=O)[C@H](CCCNC(N)=O)NC1=O [UPAR-315, Pent-[Cys-Cit-Lys(DOTA)-Tyr-Egm-Pro-Hyp-Ile-Nva-Cys]-NHz] (Pentanoyl-C[Cit]K(DOTA)Y[Phe(2,4-Cl2)]P[Hyp]I[Nva]C-NH2; disulfide 1-10)
[1]
  IC50: ≤ 10 nM
[2]
  Kd: < 1.58 nM

## CCCCCC(=O)N[C@@H](CC(=O)O)C(=O)N[C@@H](CC(C)C)C(=O)N[C@H]1CSSC[C@@H](C(=O)NCCCOCCOCCOCCCNC(=O)CCC(=O)N[C@@H](CCCCNC(=O)CN2CCN(CC(=O)O)CCN(CC(=O)O)CCN(CC(=O)O)CC2)C(N)=O)NC(=O)[C@H](CC(C)C)NC(=O)[C@H]([C@@H](C)CC)NC(=O)[C@H](C)NC(=O)[C@@H]2CCCN2C(=O)[C@H](Cc2ccccc2)NC(=O)[C@H](Cc2ccc(O)cc2)NC(=O)[C@H](CCSC)NC(=O)[C@H](CCCNC(=N)N)NC1=O [UPAR-150, Hex-Asp-Leu-[Cys-Arg-Met-Tyr-Phe-Pro-Ala-Ile-Leu-Cys]-Ttds-Lys(DOTA)-NH2] (Hexanoyl-DLCRMYFPAILC-X3; disulfide 3-12)
[1]
  IC50: 39.8 to 100 nM
[2]
  Kd: 1.58 to 10 nM

## CCCCC(=O)N[C@H]1CSSC[C@@H](C(N)=O)NC(=O)[C@H](CCC)NC(=O)[C@H]([C@@H](C)CC)NC(=O)[C@H](CCC(=O)O)N(C)C(=O)[C@@H]2CCCN2C(=O)[C@H](Cc2ccccc2)NC(=O)[C@H](Cc2ccc(O)cc2)NC(=O)[C@H](CCCCNC(=O)CN2CCN(CC(=O)O)CCN(CC(=O)O)CCN(CC(=O)O)CC2)NC(=O)[C@H](CCCNC(N)=O)NC1=O [UPAR-327, Pent-[Cys-Cit-Lys(DOTA)-Tyr-Phe-Pro-Nme-Ile-Nva-Cys]-NH2] (Pentanoyl-C[Cit]K(DOTA)YFP[NMeE]I[Nva]C-NH2; disulfide 1-10)
[1]
  IC50: ≥ 126 nM
[2]
  Kd: > 100 nM

## CC[C@H](C)[C@@H]1NC(=O)[C@@H](C)NC(=O)[C@@H]2CCCN2C(=O)[C@H](Cc2ccccc2)NC(=O)[C@H](Cc2ccc(O)c(O)c2)NC(=O)[C@H](CCC(N)=O)NC(=O)[C@H](CCCNC(N)=O)NC(=O)[C@@H](NC(=O)CCC(C)C)CSSC[C@@H](C(N)=O)NC(=O)[C@H](CC(C)C)NC1=O [UPAR-144, iHex-[Cys-Cit-Gln-Dopa-Phe-Pro-ala-Ile-Leu-Cys]-NH2] ({Pentanoyl(4-Me)}-C[Cit]Q[Dopa]FP[dA]ILC-NH2; disulfide 1-10)
[1]
  IC50: ≤ 10 nM
[2]
  Kd: < 1.58 nM

## CCCCC(=O)N[C@H]1CSSC[C@@H](C(N)=O)NC(=O)[C@H](CCC)NC(=O)[C@H](Cc2ccccc2)NC(=O)[C@@H]2C[C@@H](O)CN2C(=O)[C@@H]2CCCN2C(=O)[C@H](Cc2ccccc2)NC(=O)[C@H](Cc2ccc(O)cc2)NC(=O)[C@H](CCC(N)=O)NC(=O)[C@H](CCCNC(=N)N)NC1=O [UPAR-447, Pent-[Cys-Arg-Gln-Tyr-Phe-Pro-Hyp-Phe-Nva-Cys]-NH2] (Pentanoyl-CRQYFP[Hyp]F[Nva]C-NH2; disulfide 1-10)
[1]
  IC50: ≤ 10 nM
[2]; single cycle kinetics
  Kd: < 1.58 nM

## CC[C@H](C)[C@@H]1NC(=O)[C@@H]2CCN2C(=O)[C@@H]2CCCN2C(=O)[C@H](Cc2ccccc2)NC(=O)[C@H](Cc2ccc(O)cc2)NC(=O)[C@H](CCC(N)=O)NC(=O)[C@H](CCCNC(N)=O)NC(=O)[C@@H](NC(=O)CCC(C)C)CSSC[C@@H](C(N)=O)NC(=O)[C@H](CC(C)C)NC1=O [UPAR-446, iHex-[Cys-Cit-Gln-Tyr-Phe-Pro-Aze-Ile-Leu-Cys]-NH2] ({Pentanoyl(4-Me)}-C[Cit]QYFP[Aze]ILC-NH2; disulfide 1-10)
[1]
  IC50: ≤ 10 nM
[2]; single cycle kinetics
  Kd: < 1.58 nM

## CCCC[C@H](NC(=O)CCC(=O)NCCCOCCOCCOCCCNC(=O)CN1CCN(CC(=O)O)CCN(CC(=O)O)CCN(CC(=O)O)CC1)C(=O)N[C@@H](CC(=O)O)C(=O)N[C@@H](CC(C)C)C(=O)N[C@H]1CSSC[C@@H](C(N)=O)NC(=O)[C@H](CC(C)C)NC(=O)[C@H]([C@@H](C)CC)NC(=O)[C@H](C)NC(=O)[C@@H]2CCCN2C(=O)[C@H](Cc2ccccc2)NC(=O)[C@H](Cc2ccc(O)cc2)NC(=O)[C@H](CCSC)NC(=O)[C@H](CCCNC(=N)N)NC1=O [UPAR-347, DOTA-Ttds-Nle-Asp-Leu-[Cys-Arg-Met-Tyr-Phe-Pro-Ala-Ile-Leu-Cys]-NH2] ({X6-Suc}-[Nle]DLCRMYFPAILC-NH2; disulfide 4-13)
[1]
  IC50: ≤ 10 nM
[2]; single cycle kinetics
  Kd: < 1.58 nM

## CCCCC(=O)N[C@H]1CSSC[C@@H](C(N)=O)NC(=O)[C@H](CCC)NC(=O)[C@H]([C@@H](C)CC)NC(=O)[C@@H]2C[C@@H](O)CN2C(=O)[C@@H]2CCCN2C(=O)[C@H](Cc2ccccc2)NC(=O)[C@H](Cc2ccc(O)cc2)NC(=O)CNC(=O)[C@H](CCCNC(=N)N)NC1=O [UPAR-409, Pent-[Cys-Arg-Gly-Tyr-Phe-Pro-Hyp-Ile-Nva-Cys]-NH2] (Pentanoyl-CRGYFP[Hyp]I[Nva]C-NH2; disulfide 1-10)
[1]
  IC50: ≤ 10 nM
[2]; single cycle kinetics
  Kd: < 1.58 nM

## CC[C@H](C)[C@@H]1NC(=O)C(C)(C)NC(=O)[C@@H]2CCCN2C(=O)[C@H](Cc2ccccc2)NC(=O)[C@H](Cc2ccc(O)cc2)NC(=O)[C@H](CCCCNC(=O)CN2CCN(CC(=O)O)CCN(CC(=O)O)CCN(CC(=O)O)CC2)NC(=O)[C@H](CCCNC(N)=O)NC(=O)[C@@H](NC(=O)CCC(C)C)CSSC[C@@H](C(N)=O)NC(=O)[C@H](CC(C)C)NC1=O [UPAR-452, iHex-[Cys-Cit-Lys(DOTA)-Tyr-Phe-Pro-Aib-Ile-Leu-Cys]-NH2] ({Pentanoyl(4-Me)}-C[Cit]K(DOTA)YFP[Aib]ILC-NH2; disulfide 1-10)
[1]
  IC50: ≤ 10 nM
[2]; single cycle kinetics
  Kd: < 1.58 nM

## CC[C@H](C)[C@@H]1NC(=O)[C@@H](C)NC(=O)[C@@H]2CCN2C(=O)[C@H](Cc2ccccc2)NC(=O)[C@H](Cc2ccc(O)cc2)NC(=O)[C@H](CCC(N)=O)NC(=O)[C@H](CCCNC(N)=O)NC(=O)[C@@H](NC(=O)CCC(C)C)CSSC[C@@H](C(N)=O)NC(=O)[C@H](CC(C)C)NC1=O [UPAR-426, iHex-[Cys-Cit-Gln-Tyr-Phe-Aze-ala-Ile-Leu-Cys]-NH2] ({Pentanoyl(4-Me)}-C[Cit]QYF[Aze][dA]ILC-NH2; disulfide 1-10)
[1]
  IC50: ≤ 10 nM
[2]; single cycle kinetics
  Kd: 1.58 to 10 nM

## CC[C@H](C)[C@@H]1NC(=O)[C@@H](C)NC(=O)[C@@H]2C[C@H](F)CN2C(=O)[C@H](Cc2ccccc2)NC(=O)[C@H](Cc2ccc(O)cc2)NC(=O)[C@H](CCC(N)=O)NC(=O)[C@H](CCCNC(N)=O)NC(=O)[C@@H](NC(=O)CCC(C)C)CSSC[C@@H](C(N)=O)NC(=O)[C@H](CC(C)C)NC1=O [UPAR-354, iHex-[Cys-Cit-Gln-Tyr-Phe-4Cfp-ala-Ile-Leu-Cys]-NH2] ({Pentanoyl(4-Me)}-C[Cit]QYF[Pro(cis-4-F)][dA]ILC-NH2; disulfide 1-10)
[1]
  IC50: ≤ 10 nM
[2]; single cycle kinetics
  Kd: < 1.58 nM

## CC(C)CCC(=O)N[C@H]1CSSC[C@@H](C(N)=O)NC(=O)[C@H](CC(C)C)NC(=O)[C@H](C2CC2)NC(=O)[C@@H](C)NC(=O)[C@@H]2CCCN2C(=O)[C@H](Cc2ccccc2)NC(=O)[C@H](Cc2ccc(O)cc2)NC(=O)[C@H](CCC(N)=O)NC(=O)[C@H](CCCNC(N)=O)NC1=O [UPAR-187, iHex-[Cys-Cit-Gln-Tyr-Phe-Pro-ala-Cpa-Leu-Cys]-NH2] ({Pentanoyl(4-Me)}-C[Cit]QYFP[dA][Gly(cPr)]LC-NH2; disulfide 1-10)
[1]
  IC50: ≥ 126 nM
[2]
  Kd: > 100 nM

## CC[C@H](C)[C@@H]1NC(=O)[C@@H](C)NC(=O)[C@@H]2CCCN2C(=O)[C@H](Cc2ccccc2)NC(=O)[C@H](Cc2ccc(O)cc2)NC(=O)[C@H](CCC(N)=O)NC(=O)[C@H](CCCCNC(=O)CN2CCN(CC(=O)O)CCN(CC(=O)O)CCN(CC(=O)O)CC2)NC(=O)[C@@H](NC(=O)CCC(C)C)CSSC[C@@H](C(N)=O)NC(=O)[C@H](CC(C)C)NC1=O [UPAR-157, iHex-[Cys-Lys(DOTA)-Gln-Tyr-Phe-Pro-ala-Ile-Leu-Cys]-NH2] ({Pentanoyl(4-Me)}-CK(DOTA)QYFP[dA]ILC-NH2; disulfide 1-10)
[1]
  IC50: ≤ 10 nM
[2]
  Kd: < 1.58 nM

## CC[C@H](C)[C@@H]1NC(=O)[C@@H](C)NC(=O)[C@@H]2CCCN2C(=O)[C@H](Cc2ccccc2)NC(=O)[C@H](Cc2ccc(O)cc2)NC(=O)[C@H](CCC(N)=O)NC(=O)[C@@H](CCCNC(=N)N)NC(=O)[C@@H](NC(=O)CCC(C)C)CSSC[C@@H](C(N)=O)NC(=O)[C@H](CC(C)C)NC1=O [UPAR-467, iHex-[Cys-arg-Gln-Tyr-Phe-Pro-ala-Ile-Leu-Cys]-NH2] ({Pentanoyl(4-Me)}-C[dR]QYFP[dA]ILC-NH2; disulfide 1-10)
[1]
  IC50: ≥ 126 nM
[2]; single cycle kinetics
  Kd: 10 to 100 nM

## CC[C@H](C)[C@@H]1NC(=O)[C@@H]2COCN2C(=O)[C@@H]2CCCN2C(=O)[C@H](Cc2ccccc2)NC(=O)[C@H](Cc2ccc(O)cc2)NC(=O)[C@H](CCC(N)=O)NC(=O)[C@H](CCCNC(N)=O)NC(=O)[C@@H](NC(=O)CCC(C)C)CSSC[C@@H](C(N)=O)NC(=O)[C@H](CC(C)C)NC1=O [UPAR-262, iHex-[Cys-Cit-Gln-Tyr-Phe-Pro-Oxa-Ile-Leu-Cys]-NH2] ({Pentanoyl(4-Me)}-C[Cit]QYFP[Ser(ΨH,HPro)]ILC-NH2; disulfide 1-10)
[1]
  IC50: ≤ 10 nM
[2]
  Kd: < 1.58 nM
